Assays:
[1] = tested on: rabbit model of dry eye syndrome; assay: Alcian blue assay of conjunctival mucus secretion in N-acetylcysteine-induced rabbit dry eye syndrome model; type: in vivo, New Zealand White (NZW) rabbits; conditions: 0.5% solution instilled 4 times/day (0.1 mL) for seven days; conjunctiva, absorbance at 605 nm; Mean ± S.D.
Method: (§1) Male New Zealand White (NZW) rabbits were randomly assigned into two groups, each consisting of 5 animals. In order to induce dry eye syndrome, N-acetylcysteine was first dissolved at a concentration of 20% in physiological saline. Then, the rabbit's lower eyelid was pulled slightly away from the globe to form a cup shape and the above-prepared N-acetylcysteine solution was instilled into the conjunctival sac six times every 2 hours, resulting in establishment of an animal model of dry eye syndrome. 3′,4′,5-trimethoxy flavone derivatives were dissolved at a concentration of 0.5% in a 0.1N sodium hydroxide solution which was then titrated to pH 7.0 to 8.0 with 10% acetic acid. From the following day after induction of dry eye syndrome, the titrated 3′,4′,5-trimethoxy flavone derivatives were repeatedly instilled into conjunctival sacs of animals at a dose frequency of 4 times/day (0.1 mL/each time) for seven consecutive days. On the next day following the induction of dry eye syndrome and upon completion of the experiment, the degree of ocular surface damage was evaluated to calculate a damage decrease rate (%) using Rose Bengal assay, and mucus secretion in the conjunctiva was quantitatively analyzed using Alcian blue assay. More specifically referring to Rose Bengal assay, 10 μl of a 1% Rose Bengal solution was dropped into the eyes of animals, and distribution and intensity of Rose Bengal staining were scored according to the method disclosed in Urashima et al., Cornea, 23:613-9, 2004. For Alcian blue assay, the rabbit's conjunctivae were excised, weighed, stained with a 0.1% Alcian blue solution for 2 hours and then washed with a 0.25 M sucrose solution. Following extraction with a 0.5 M magnesium chloride solution, the absorbance was measured at 605 nm.

[2] = tested on: human mucoepidermoid pulmonary carcinoma cell line NCI-H292; assay: Mucin secretion (MUC4, MUC5AC) by ELISA in NCI-H292 cells; type: cell-based; conditions: 24 hours, read-out: % increase in mucin secretion vs. non-treated control group; for activation at 0.8 µg/mL: 0.8 μg/mL; for activation at 4 µg/mL: 4 μg/mL; for activation at 20 µg/mL: 20 μg/mL; for activation at 100 µg/mL: 100 μg/mL
Method: 2×10^5 cells/well of the human mucoepidermoid pulmonary carcinoma cell line NCI-H292 (ATCC, #CRL-1848) were seeded on a 96-well plate, and treated with 3′,4′,5-trimethoxy flavone derivatives at various concentrations of 0.16 to 100 μg/mL for 24 hours. Thereafter, secretion levels of representative transmembrane mucin MUC4 and secretory mucin MUC5AC were measured by enzyme-linked immunosorbent assay (ELISA).

[3] = tested on: rabbit model of dry eye syndrome; assay: Rose Bengal assay of ocular surface damage in N-acetylcysteine-induced rabbit dry eye syndrome model; type: in vivo, New Zealand White (NZW) rabbits; conditions: 0.5% solution instilled into conjunctival sac 4 times/day (0.1 mL) for seven days; Mean ± S.D.
Method: as §1

SMILES	Alcian Blue Assay Absorbance/g tissue [1]	activation at 0.8 µg/mL [2]	activation at 4 µg/mL [2]	activation at 20 µg/mL [2]	activation at 100 µg/mL [2]	Rose Bengal Assay Damage decrease rate (%) [3]
COc1ccc(-c2cc(=O)c3c(OC)cc(OCC(=O)O)cc3o2)cc1OC.O [7-carboxymethyloxy-3′,4′,5-trimethoxy flavone monohydrate]	0.38 ± 0.08 Absorbance/g tissue	24.8%	39.1%	52.5%	75.9%	88.5 ± 4.7 %
COc1ccc(-c2cc(=O)c3c(OC)cc(OCc4nnn[nH]4)cc3o2)cc1OC [Example 1, 7-(tetrazol-5-ylmethyloxy)-3′,4′,5-trimethoxy flavone]		18.7%	28.1%	57.8%	52%	
COc1ccc(-c2cc(=O)c3c(OC)cc(OCC(N)=O)cc3o2)cc1OC [Example 3, 7-{(carbamoyl)methyloxy}-3′,4′,5-trimethoxy flavone]		2.2%	6.6%	10.4%	15.8%	
COc1ccc(-c2cc(=O)c3c(OC)cc(OCC(=O)NC#N)cc3o2)cc1OC [Example 4, 7-{(N-cyanocarbamoyl)-methyloxy}-3′,4′,5-trimethoxy flavone]	0.24 ± 0.19 Absorbance/g tissue			4.3%	25.2%	83.8 ± 4.6 %
COc1ccc(-c2cc(=O)c3c(OC)cc(OCC(=O)NS(=O)(=O)c4ccccc4)cc3o2)cc1OC [Example 5, 7-{(N-benzenesulfonylcarbamoyl)methyloxy}-3′,4′,5-trimethoxy flavone]	0.32 ± 0.09 Absorbance/g tissue	43.9%	45.4%	35.4%	70.9%	70.1 ± 5.2 %
COc1ccc(-c2cc(=O)c3c(OC)cc(OCC(=O)NS(N)(=O)=O)cc3o2)cc1OC [Example 8, 7-{(aminosulfonylcarbamoyl)methyloxy}-3′,4′,5-trimethoxy flavone]		4.4%	10.2%	15.4%	21.4%	
COc1ccc(-c2cc(=O)c3c(OC)cc(OCC(=O)NS(C)(=O)=O)cc3o2)cc1OC [Example 9, 7-{(methylsulfonylcarbamoyl)methyloxy}-3′,4′,5-trimethoxy flavone]	0.35 ± 0.13 Absorbance/g tissue	9.7%	15.9%	37.4%	43.3%	76.8 ± 8.4 %
COc1ccc(-c2cc(=O)c3c(OC)cc(OCC(=O)NC(N)=O)cc3o2)cc1OC [Example 10, 7-{(carbamylcarbamoyl)methyloxy}-3′,4′,5-trimethoxy flavone]			6.7%	15.4%	25.9%	
COc1ccc(-c2cc(=O)c3c(OC)cc(OCC(=O)NC(C)=O)cc3o2)cc1OC [Example 12, 7-{(acetylcarbamoyl)methyloxy}-3′,4′,5-trimethoxy flavone]		15.2%	13.6%	20.5%	30.2%	

Reference: patent publication US8203011B2, “3′,4′,5-trimethoxy flavone derivatives as stimulant of mucus secretion, method for the same, and pharmaceutical composition comprising the same” (Dong-A Pharm. Co., Ltd., priority 2007, dated 2012)
